Reference: patent publication US4342762A, “Basic ethers and pharmaceutical compositions containing the same” (Egyt Gyogyszervegyeszeti Gyar, priority 1979, dated 1982)

Columns and labels:
[1] = test system: white mice; experiment: inhibition of motility, Dews apparatus (Borsy); assay type: in vivo; conditions: for ED50: Mus musculus, oral pretreatment 30 minutes, observation 30 minutes; for Inhibition of motility Th.I.: therapeutic index
Protocol: (§1) The effect on the inhibition of the oriental activity (inhibition of the motility) was investigated on white mice in a Dews apparatus applied with 8 canals by the method of Borsy [Borsy, J., Csanyi, E., Lazar, I., Arc. Int. Pharmacodyn. 124, 1-2 (1960)]. After an oral pretreatment of 30 minutes the number of light-interruptions due to the movements of groups consisting of 3-3 mice was registered. The observation lasted for 30 minutes. The effect of the compounds exerted on the duration of hexobarbital-narcosis was tested by the method of Kaergaard [Kaergaard, N. C., Magnussen, M. P., Kampmann, E., Frey, H. H., Arc. Int. Pharmacodyn. 2, 170; (1967)]. Groups of animals consisting of 6-6 mice were treated.

[2] = test system: white mice; experiment: inhibition of maximal electroshock (MES) (Swinyard et al.); assay type: in vivo; conditions: for ED50: Mus musculus, oral, 1 hour before electroshock 50 Hz, 45 mA, 0.4 sec, total inhibition of tonic extensor convulsion; for Inhibition of MES Th. I.: therapeutic index
Protocol: (§2) The antiepileptic effect was investigated on white mice, after oral administration. The inhibition of maximal electroshock (MES) was determined by the method of Swinyard et al. [Swinyard et al. J. Pharmacol. Exp. Ther. 106, 319-330 (1952)]. White mice weighing 20-25 g were subjected to electric shock through corneal electrodes (Parameters: 50 Hz, 45 mA, 0.4 sec.). The total inhibition of the tonic extensor convulsion was considered as criterion of the anti-convulsive effect. The test-substance had been orally administered one hour before the electroshock. The inhibition of pentetrazole convulsion was determined on white mice by the modified method of Banziger and Hane [Banziger, R., Hane, L.D. Arch. Int. Pharmacodyn. 167, 245-249; (1967)]. I." stands for "therapeutic index."

[3] = acute oral toxicity, graphic method of Litchfield-Wilcoxon, 4 days observation; conditions: mouse, in vivo; oral, 20 ml/kg, both sexes 18-24 g, 4 days observation
Protocol: The analgesic effect of the new compounds according to the invention was determined by the method of Wirth et al. (Wirth, W., Gosswald, R., Horlein. K., Risse, Kl. H., Kreiskott, H.: Arch. Int. Pharmacodyn. 115, 1; (1958)). 0.4 ml of 0.5% acetic acid was administered i.p. to white mice, and the characteristic "writhing" reactions were counted after 5 minutes. […] The results are given in Table I. The toxicity data determined on white mice of both sexes weighing 18-24 g belonging to the strain CFLP are also given. Administration was effected with an oral dose of 20 ml/kg. After treatment the animals were kept under observation for 4 days. The toxicity data (LD50 mg/kg) were determined by the graphic method of Litchfield-Wilcoxon [Litchfield, J.T., Wilcoxon, E. W., J Pharmacol. Exp. Therap. 96, 99; (1949)].

[4] = test system: white mice; experiment: analgesic effect, inhibition of acetic acid "writhing" reactions (Wirth et al.); assay type: in vivo; conditions: for ED50: Mus musculus, po, read-out: Analgesic effect ED50; for Analgesic effect Therap.index: therapeutic index
Protocol: The analgesic effect of the new compounds according to the invention was determined by the method of Wirth et al. (Wirth, W., Gosswald, R., Horlein. K., Risse, Kl. H., Kreiskott, H.: Arch. Int. Pharmacodyn. 115, 1; (1958)). 0.4 ml of 0.5% acetic acid was administered i.p. to white mice, and the characteristic "writhing" reactions were counted after 5 minutes. The compounds to be tested had been orally administered an hour before the administration of the acetic acid. The activity is expressed as a percentage of the inhibition referred to the data observed on the control group. The results are given in Table I. The toxicity data determined on white mice of both sexes weighing 18-24 g belonging to the strain CFLP are also given. Administration was effected with an oral dose of 20 ml/kg. After treatment the animals were kept under observation for 4 days. The toxicity data (LD50 mg/kg) were determined by the graphic method of Litchfield-Wilcoxon [Litchfield, J.T., Wilcoxon, E. W., J Pharmacol. Exp. Therap. 96, 99; (1949)].

[5] = test system: white mice; experiment: inhibition of nicotine-lethality (Stone); assay type: in vivo; conditions: for ED50: Mus musculus, oral, 1 hour before 1.4 mg/kg nicotine
Protocol: The inhibition of nicotine-lethality was determined on white mice by the method of Stone [Stone, C. A., Mecklenburg, K. L., Torchiana, M. L., Arch. Int. Pharmacodyn.

[6] = test system: mice; experiment: potentiating of hexobarbital-narcosis (Kaergaard); assay type: in vivo; conditions: for ED50: Mus musculus, iv, 40 mg/kg hexobarbital i.v., positive: sleeping period at least 2.5 times control; for Potentiating of narcosis Th.I.: therapeutic index
Protocol: as §1

[7] = test system: white mice; experiment: inhibition of pentetrazole convulsion (modified Banziger and Hane); assay type: in vivo; conditions: for ED50: Mus musculus, oral; for Inhibition of pentetrazole convulsion Th. I.: therapeutic index
Protocol: as §2

Compound | ED50 [1] [mg/kg] | Inhibition of motility Th.I. [1] | ED50 [2] [mg/kg] | Inhibition of MES Th. I. [2] | LD50 at 96 h [3] [mg/kg] | ED50 [4] [mg/kg] | Analgesic effect Therap.index [4] | ED50 [5] [mg/kg] | Inhibition of nicotine-lethality Therapeutic index [5] | ED50 [6] [mg/kg] | Potentiating of narcosis Th.I. [6] | ED50 [7] [mg/kg] | Inhibition of pentetrazole convulsion Th. I. [7]
CN(C)CCCOC1(Cc2ccccc2)CC2CCC1(C)C2(C)C (racemic) [Example 1, (±)-2-benzyl-2-(3'-dimethylaminopropoxy)-1,7,7-trimethyl-bicyclo(2,2,1)heptane] | 110 | 14.5 | 130 | 12.3 | 1600 | 120 | 13.3 | 38 | 42.1 | 90 | 17.7 |  | 
CCN(CC)CCOC1(Cc2ccccc2)CC2CCC1(C)C2(C)C (single isomer, unassigned) [Example 8, D-(+)-2-benzyl-2-(2'-diethylaminoethoxy)-1,7,7-trimethyl-bicyclo(2,2,1)heptane] | 60 | 14.2 | 30 | 28.3 | 850 | 45 | 18.9 | 11 | 77.3 | 60 | 14.2 | 20 | 42.5
CC(COC1(Cc2ccccc2)CC2CCC1(C)C2(C)C)CN(C)C (racemic) [Example 2, (±)-2-benzyl-2-(3'-dimethylamino-2'-methylpropoxy)-1,7,7-trimethyl-bicyclo(2,2,1) heptane] |  |  | 120 | 14.2 | 1700 | 85 | 20.0 | 20 | 85,0 | 15 | 113.3 | 88 | 19.3
CN(C)CCCOC1(Cc2ccccc2)CC2CCC1(C)C2(C)C (single isomer, unassigned) [Example 7, D-(-)-2-benzyl-2-(3'-dimethylaminopropoxy)-1,7,7-trimethyl-bicyclo(2,2,1)heptane] | 90 | 13.3 | 56 | 21.4 | 1200 | 70 | 17.1 | 25 | 48.0 |  |  | 66 | 18.2
